Experimental data reported in patent US12162840B2, “Herbicidal compositions” (SYNGENTA PARTICIPATIONS AG, priority 2018, dated 2024).

Assays:
Assay type in all cases: in vivo
[1] = system: Amaranthus retoflexus (AMARE); assay: B1 Post-emergence efficacy Test 1; conditions: post-emergence application, 1000 g/ha, evaluated after 13 days
Method: (§1) Seeds of a variety of test species are sown in standard soil in pots:—Solanum nigrum (SOLNI), Amaranthus retoflexus (AMARE), Setaria faberi (SETFA), Alopecurus myosuroides (ALOMY), Echinochloa crus-galli (ECHCG), Ipomoea hederacea (IPOHE), Lolium perenne (LOLPE). After 8 days cultivation (post-emergence) under controlled conditions in a glasshouse (at 24/16° C., day/night; 14 hours light; 65% humidity), the plants are sprayed with an aqueous spray solution derived from the formulation of the technical active ingredient in acetone/water (50:50) solution containing 0.5% Tween 20 (polyoxyethylene sorbitan monolaurate, CAS RN 9005-64-5). Compounds are applied at 1000 g/ha. The test plants are then grown in a glasshouse under controlled conditions in a glasshouse (at 24/16° C., day/night; 14 hours light; 65% humidity) and watered twice daily. After 13 days, the test is evaluated for the percentage damage caused to the plant. The biological activities are assessed on a five point scale (5=80-100%; 4=60-79%; 3=40-59%; 2=20-39%; 1=0-19%). A blank value in the table is indicative that the compound was not tested on that species.

[2] = system: Echinochloa crus-galli (ECHCG); assay: B1 Post-emergence efficacy Test 1; conditions: post-emergence application, 1000 g/ha, evaluated after 13 days
Method: as §1

[3] = system: Ipomoea hederacea (IPOHE); assay: B1 Post-emergence efficacy Test 1; conditions: post-emergence application, 1000 g/ha, evaluated after 13 days
Method: as §1

[4] = system: Lolium perenne (LOLPE); assay: B1 Post-emergence efficacy Test 1; conditions: post-emergence application, 1000 g/ha, evaluated after 13 days
Method: as §1

[5] = system: Setaria faberi (SETFA); assay: B1 Post-emergence efficacy Test 1; conditions: post-emergence application, 1000 g/ha, evaluated after 13 days
Method: as §1

[6] = system: Solanum nigrum (SOLNI); assay: B1 Post-emergence efficacy Test 1; conditions: post-emergence application, 1000 g/ha, evaluated after 13 days
Method: as §1

[7] = system: warm season plant species; assay: B2 Post-emergence efficacy Test 2, warm season plant species; conditions: 15 days after application, 0-100 scale, 0=no damage, 100=total kill; for Herbicidal activity, ABUTH: Abutilon theophrasti; for Herbicidal activity, AMARE: Amaranthus retroflexus; for Herbicidal activity, BIDPI: Bidens pilosa; for Herbicidal activity, BRAPL: Brachiaria plantaginea; for Herbicidal activity, DIGSA: Digitaria sanguinalis; for Herbicidal activity, ECHCG: Echinochloa crus galli; for Herbicidal activity, ELEIN: Eleisine indica; for Herbicidal activity, EPHHL: Euphorbia hetrophylla; for Herbicidal activity, GLXMA: Glycine max; for Herbicidal activity, IPOHE: Ipomoea hederacea; for Herbicidal activity, ORYSA: Orysa sativa; for Herbicidal activity, PANMI: Panicum miliaceum; for Herbicidal activity, SETFA: Setaria faberi; for Herbicidal activity, SIDSP: Sida spinosa; for Herbicidal activity, SORVU: Sorghum bicolour; for Herbicidal activity, XANST: Xanthium strumarium; for Herbicidal activity, ZEAMX: Zea mays
Method: Seeds of a variety of test species (see Table B1) were sown in standard soil in pots. After cultivation for 12 days (post-emergence) under controlled conditions in a glasshouse (at 24/18° C. or 20/16° C., at day/night; 16 hours light; 65% humidity), the plants were sprayed with an aqueous spray solution derived from the formulation of the technical active ingredient dissolved in IF50 (see Table B2 for composition) and adjuvant (Genapol XO80) was added to the spray solution at a rate of 0.2% v/v. [table] [table] After application, the test plants were grown in a glasshouse under controlled conditions (as above) and watered twice daily. Herbicidal activity was evaluated 15 days after application on a 0-100 scale. The results, where 0=no damage to test plant and 100=total kill of test plant are shown below in Tables 6 to 9.

With `Cc1nn(C)c(=O)c(-c2c(F)ccc(Cl)c2CCc2ccc(C#N)cc2)c1O` [Compound 1.024] the “percentage damage caused to the plant, five point scale, AMARE” value [1] was 5 (5=80-100%), the “percentage damage caused to the plant, five point scale, ECHCG” value [2] was 5 (5=80-100%) and the “percentage damage caused to the plant, five point scale, IPOHE” value [3] was 5 (5=80-100%). For the same compound, the “percentage damage caused to the plant, five point scale, LOLPE” value [4] was 5 (5=80-100%), the “percentage damage caused to the plant, five point scale, SETFA” value [5] was 5 (5=80-100%) and the “percentage damage caused to the plant, five point scale, SOLNI” value [6] was 5 (5=80-100%). The “Herbicidal activity, ABUTH” value ([7]; 15 g/Ha) was 90, the “Herbicidal activity, ABUTH” value ([7]; 30 g/Ha) was 90 and the “Herbicidal activity, ABUTH” value ([7]; 60 g/Ha) was 100. For the same compound, the “Herbicidal activity, ABUTH” value ([7]; 125 g/Ha) was 100, the “Herbicidal activity, ABUTH” value ([7]; 250 g/Ha) was 100 and the “Herbicidal activity, ABUTH” value ([7]; 500 g/Ha) was 100. The “Herbicidal activity, AMARE” value ([7]; 15 g/Ha) was 80, the “Herbicidal activity, AMARE” value ([7]; 30 g/Ha) was 90 and the “Herbicidal activity, AMARE” value ([7]; 60 g/Ha) was 90. The “Herbicidal activity, AMARE” value ([7]; 125 g/Ha) was 100, the “Herbicidal activity, AMARE” value ([7]; 250 g/Ha) was 100 and the “Herbicidal activity, AMARE” value ([7]; 500 g/Ha) was 100. For the same compound, the “Herbicidal activity, BIDPI” value ([7]; 15 g/Ha) was 80, the “Herbicidal activity, BIDPI” value ([7]; 30 g/Ha) was 80 and the “Herbicidal activity, BIDPI” value ([7]; 60 g/Ha) was 80. The “Herbicidal activity, BIDPI” value ([7]; 125 g/Ha) was 80, the “Herbicidal activity, BIDPI” value ([7]; 250 g/Ha) was 80 and the “Herbicidal activity, BIDPI” value ([7]; 500 g/Ha) was 90. The “Herbicidal activity, BRAPL” value ([7]; 15 g/Ha) was 30, the “Herbicidal activity, BRAPL” value ([7]; 30 g/Ha) was 60 and the “Herbicidal activity, BRAPL” value ([7]; 60 g/Ha) was 70. The “Herbicidal activity, BRAPL” value ([7]; 125 g/Ha) was 70, the “Herbicidal activity, BRAPL” value ([7]; 250 g/Ha) was 70 and the “Herbicidal activity, BRAPL” value ([7]; 500 g/Ha) was 90. For the same compound, the “Herbicidal activity, DIGSA” value ([7]; 15 g/Ha) was 0, the “Herbicidal activity, DIGSA” value ([7]; 30 g/Ha) was 20 and the “Herbicidal activity, DIGSA” value ([7]; 60 g/Ha) was 40. The “Herbicidal activity, DIGSA” value ([7]; 125 g/Ha) was 80, the “Herbicidal activity, DIGSA” value ([7]; 250 g/Ha) was 90 and the “Herbicidal activity, DIGSA” value ([7]; 500 g/Ha) was 90. The “Herbicidal activity, ECHCG” value ([7]; 15 g/Ha) was 70, the “Herbicidal activity, ECHCG” value ([7]; 30 g/Ha) was 80 and the “Herbicidal activity, ECHCG” value ([7]; 60 g/Ha) was 80. For the same compound, the “Herbicidal activity, ECHCG” value ([7]; 125 g/Ha) was 90, the “Herbicidal activity, ECHCG” value ([7]; 250 g/Ha) was 90 and the “Herbicidal activity, ECHCG” value ([7]; 500 g/Ha) was 100. For the same compound, the “Herbicidal activity, ELEIN” value ([7]; 15 g/Ha) was 0, the “Herbicidal activity, ELEIN” value ([7]; 30 g/Ha) was 40 and the “Herbicidal activity, ELEIN” value ([7]; 60 g/Ha) was 40. For the same compound, the “Herbicidal activity, ELEIN” value ([7]; 125 g/Ha) was 60, the “Herbicidal activity, ELEIN” value ([7]; 250 g/Ha) was 80 and the “Herbicidal activity, ELEIN” value ([7]; 500 g/Ha) was 80. For the same compound, the “Herbicidal activity, EPHHL” value ([7]; 15 g/Ha) was 70, the “Herbicidal activity, EPHHL” value ([7]; 30 g/Ha) was 90 and the “Herbicidal activity, EPHHL” value ([7]; 60 g/Ha) was 90. For the same compound, the “Herbicidal activity, EPHHL” value ([7]; 125 g/Ha) was 90, the “Herbicidal activity, EPHHL” value ([7]; 250 g/Ha) was 100 and the “Herbicidal activity, EPHHL” value ([7]; 500 g/Ha) was 100. For the same compound, the “Herbicidal activity, GLXMA” value ([7]; 15 g/Ha) was 70, the “Herbicidal activity, GLXMA” value ([7]; 30 g/Ha) was 80 and the “Herbicidal activity, GLXMA” value ([7]; 60 g/Ha) was 90. The “Herbicidal activity, GLXMA” value ([7]; 125 g/Ha) was 90, the “Herbicidal activity, GLXMA” value ([7]; 250 g/Ha) was 100 and the “Herbicidal activity, GLXMA” value ([7]; 500 g/Ha) was 100. The “Herbicidal activity, IPOHE” value ([7]; 30 g/Ha) was 100, the “Herbicidal activity, IPOHE” value ([7]; 60 g/Ha) was 100 and the “Herbicidal activity, IPOHE” value ([7]; 125 g/Ha) was 100. For the same compound, the “Herbicidal activity, IPOHE” value ([7]; 250 g/Ha) was 100, the “Herbicidal activity, IPOHE” value ([7]; 500 g/Ha) was 100 and the “Herbicidal activity, ORYSA” value ([7]; 15 g/Ha) was 0. For the same compound, the “Herbicidal activity, ORYSA” value ([7]; 30 g/Ha) was 0, the “Herbicidal activity, ORYSA” value ([7]; 60 g/Ha) was 0 and the “Herbicidal activity, ORYSA” value ([7]; 125 g/Ha) was 0. The “Herbicidal activity, ORYSA” value ([7]; 250 g/Ha) was 20, the “Herbicidal activity, ORYSA” value ([7]; 500 g/Ha) was 40 and the “Herbicidal activity, PANMI” value ([7]; 15 g/Ha) was 0. The “Herbicidal activity, PANMI” value ([7]; 30 g/Ha) was 70, the “Herbicidal activity, PANMI” value ([7]; 60 g/Ha) was 80 and the “Herbicidal activity, PANMI” value ([7]; 125 g/Ha) was 90. The “Herbicidal activity, PANMI” value ([7]; 250 g/Ha) was 90, the “Herbicidal activity, PANMI” value ([7]; 500 g/Ha) was 100 and the “Herbicidal activity, SETFA” value ([7]; 15 g/Ha) was 20. For the same compound, the “Herbicidal activity, SETFA” value ([7]; 30 g/Ha) was 70, the “Herbicidal activity, SETFA” value ([7]; 60 g/Ha) was 80 and the “Herbicidal activity, SETFA” value ([7]; 125 g/Ha) was 90. For the same compound, the “Herbicidal activity, SETFA” value ([7]; 250 g/Ha) was 90, the “Herbicidal activity, SETFA” value ([7]; 500 g/Ha) was 100 and the “Herbicidal activity, SIDSP” value ([7]; 15 g/Ha) was 80. The “Herbicidal activity, SIDSP” value ([7]; 30 g/Ha) was 90, the “Herbicidal activity, SIDSP” value ([7]; 60 g/Ha) was 90 and the “Herbicidal activity, SIDSP” value ([7]; 125 g/Ha) was 100. For the same compound, the “Herbicidal activity, SIDSP” value ([7]; 250 g/Ha) was 100, the “Herbicidal activity, SIDSP” value ([7]; 500 g/Ha) was 100 and the “Herbicidal activity, SORVU” value ([7]; 15 g/Ha) was 0. For the same compound, the “Herbicidal activity, SORVU” value ([7]; 30 g/Ha) was 10, the “Herbicidal activity, SORVU” value ([7]; 60 g/Ha) was 70 and the “Herbicidal activity, SORVU” value ([7]; 125 g/Ha) was 80. The “Herbicidal activity, SORVU” value ([7]; 250 g/Ha) was 90, the “Herbicidal activity, SORVU” value ([7]; 500 g/Ha) was 100 and the “Herbicidal activity, XANST” value ([7]; 60 g/Ha) was 80. For the same compound, the “Herbicidal activity, XANST” value ([7]; 125 g/Ha) was 80, the “Herbicidal activity, XANST” value ([7]; 500 g/Ha) was 100 and the “Herbicidal activity, ZEAMX” value ([7]; 15 g/Ha) was 0. For the same compound, the “Herbicidal activity, ZEAMX” value ([7]; 30 g/Ha) was 10, the “Herbicidal activity, ZEAMX” value ([7]; 60 g/Ha) was 20 and the “Herbicidal activity, ZEAMX” value ([7]; 125 g/Ha) was 40. The “Herbicidal activity, ZEAMX” value ([7]; 250 g/Ha) was 70 and the “Herbicidal activity, ZEAMX” value ([7]; 500 g/Ha) was 100.
